Laboratory results reported in patent US20060069132A1, “Azolecarboxamide herbicides” (priority 2004, published 2006).

Assays:
velvetleaf = assay: Test B pre-/postemergence herbicide test; assay type: in vivo, Abutilon theophrasti; settings: for Velvetleaf plant response rating: postemergence, scale 0 (no effect) to 100 (complete control)
How it was run: (§1)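 Herbicidal effect was judged by eye on a 0–100 scale after plants stood 13 to 15 days in the greenhouse following pre- or postemergence treatment with surfactant-containing formulations.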

rice [1] = assay: Test B flooded paddy test; assay type: in vivo, Oryza sativa; settings: 1000 g ai/ha, visual rating, scale 0 to 100 (0 no effect, 100 complete control), 13 to 15 days
How it was run: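 Treated at 2-leaf (paddy) or 1–4-leaf, 2–18 cm (postemergence); greenhouse 13–15 d; visual score vs control, 0 none to 100 complete control; dash = not tested.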

barnyardgrass [2] = assay: Test B flooded paddy test; assay type: in vivo, Echinochloa crus-galli; settings: 1000 g ai/ha, visual rating, scale 0 to 100 (0 no effect, 100 complete control), 13 to 15 days
How it was run: (§2)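 Plants grow to 1- to 4-leaf stage (2–18 cm) for postemergence spraying, or to 2-leaf stage for the paddy test. Formulated compound is applied. Greenhouse holding lasts 13–15 days. Response is scored visually relative to controls, 0 no effect to 100 complete control; a dash means no result.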

barnyardgrass [3] = assay: Test B pre-/postemergence herbicide test; assay type: in vivo, Echinochloa crus-galli; settings: for Barnyardgrass plant response rating: postemergence, scale 0 (no effect) to 100 (complete control)
How it was run: (§3)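 Species tested were Echinochloa crus-galli, Ipomoea coccinea, Xanthium strumarium and Oryza sativa, treated both before emergence and at the 1- to 4-leaf stage; rice and barnyardgrass were also tested under flooding at 2 leaves. Greenhouse incubation lasted 13–15 days before visual 0–100 scoring.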

giant foxtail = assay: Test B pre-/postemergence herbicide test; assay type: in vivo, Setaria faberi; settings: for Foxtail, Giant plant response rating: postemergence, scale 0 (no effect) to 100 (complete control)
How it was run: as §1

morningglory = assay: Test B pre-/postemergence herbicide test; assay type: in vivo, Ipomoea coccinea; settings: for Morningglory plant response rating: postemergence, scale 0 (no effect) to 100 (complete control)
How it was run: as §3

rice [4] = assay: Test C flooded paddy test; assay type: in vivo, Oryza sativa
How it was run: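 Plants were grown to the 1- to 4-leaf stage (2–18 cm) and then treated postemergence, or grown to the 2-leaf stage for the flooded paddy test. They were held in a greenhouse for 12 to 14 days and then scored by eye against controls, where 0 is no effect and 100 is complete control.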

corn = assay: Test B pre-/postemergence herbicide test; assay type: in vivo, Zea mays; settings: for Corn plant response rating: postemergence, scale 0 (no effect) to 100 (complete control)
How it was run: as §1

blackgrass = assay: Test B postemergence herbicide test; assay type: in vivo, Alopecurus myosuroides; settings: postemergence, visual rating, scale 0 (no effect) to 100 (complete control)
How it was run: as §2

large crabgrass = assay: Test B pre-/postemergence herbicide test; assay type: in vivo, Digitaria sanguinalis; settings: for Crabgrass, Large plant response rating: postemergence, scale 0 (no effect) to 100 (complete control)
How it was run: as §1

wheat = assay: Test B postemergence herbicide test; assay type: in vivo, Triticum aestivum; design: key to Wheat plant response rating: 0 = no effect, 100 = complete control; settings: postemergence, visual rating, scale 0 (no effect) to 100 (complete control)
How it was run: (§4)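 Visual ratings, 0 (no effect) to 100 (complete control), made versus controls after 13–15 d greenhouse. Paddy plants treated at 2-leaf stage; postemergence plants at 1- to 4-leaf stage, 2–18 cm tall.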

[5] = test system: small flower umbrella sedge; assay: Test B flooded paddy test; assay type: in vivo, Cyperus difformis; settings: 1000 g ai/ha, visual rating, scale 0 to 100 (0 no effect, 100 complete control), 13 to 15 days
How it was run: as §2

Surinam grass = assay: Test B pre-/postemergence herbicide test; assay type: in vivo, Urochloa decumbens; settings: for Surinam Grass plant response rating: postemergence, scale 0 (no effect) to 100 (complete control)
How it was run: as §1

wild oat = assay: Test B postemergence herbicide test; assay type: in vivo, Avena fatua; settings: postemergence, visual rating, scale 0 (no effect) to 100 (complete control)
How it was run: as §4

cocklebur = assay: Test B pre-/postemergence herbicide test; assay type: in vivo, Xanthium strumarium; settings: for Cocklebur plant response rating: postemergence, scale 0 (no effect) to 100 (complete control)
How it was run: as §3

ducksalad [6] = assay: Test C flooded paddy test; assay type: in vivo, Heteranthera limosa
barnyardgrass [7] = assay: Test C flooded paddy test; assay type: in vivo, Echinochloa crus-galli
How it was run: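 Injury scored visually against controls on a 0 (no effect) to 100 (complete control) scale, 12 to 14 days after treatment in greenhouse. Flooded paddy plants treated at 2-leaf stage; postemergence plants at 1- to 4-leaf stage, 2 to 18 cm tall.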

ducksalad [8] = assay: Test B flooded paddy test; assay type: in vivo, Heteranthera limosa; settings: 1000 g ai/ha, visual rating, scale 0 to 100 (0 no effect, 100 complete control), 13 to 15 days
How it was run: as §2

rice [9] = assay: Test B pre-/postemergence herbicide test; assay type: in vivo, Oryza sativa; settings: 0 = no effect, 100 = complete control, preemergence
How it was run: as §1

[10] = test system: smallflower umbrella sedge; assay: Test C flooded paddy test; assay type: in vivo, Cyperus difformis
lambsquarters = assay: Test B pre-/postemergence herbicide test; assay type: in vivo, Chenopodium album; settings: visual rating; for Lambsquarters plant response rating: postemergence, scale 0 (no effect) to 100 (complete control)
How it was run: as §1

pigweed = assay: Test B pre-/postemergence herbicide test; assay type: in vivo, Amaranthus retroflexus; settings: for Pigweed plant response rating: postemergence, scale 0 (no effect) to 100 (complete control)
How it was run: as §1

[11] = 125 g ai/ha, 0 = no effect, 100 = complete control, preemergence
[12] = 500 g ai/ha, visual rating, 0 = no effect, 100 = complete control, preemergence
[13] = 62 g ai/ha, scale 0 to 100 (0 no effect, 100 complete control)
[14] = 125 g ai/ha, scale 0 to 100 (0 no effect, 100 complete control)
[15] = 250 g ai/ha, scale of 0 to 100, 0 is no effect, 100 is complete control
[16] = 500 g ai/ha, visual rating after 12 to 14 days, scale 0 to 100 (0 no effect, 100 complete control)

CCNC(=O)c1ccc(F)c(NC(=O)c2sc(C(C)(C)C)nc2CC)c1 [Compound 226]
Velvetleaf plant response rating (0 to 100 scale) (velvetleaf; [11]): 10
Plant response rating, Velvetleaf (velvetleaf; [12]): 50
Velvetleaf plant response rating (velvetleaf; 125 g ai/ha, visual rating): 20
Velvetleaf plant response rating (velvetleaf; 500 g ai/ha, visual rating): 20
Rice plant response rating (rice [1]): 80
Barnyardgrass plant response rating (barnyardgrass [2]): 80
Barnyardgrass plant response rating (0 to 100 scale) (barnyardgrass [3]; [11]): 10
Plant response rating, Barnyardgrass (barnyardgrass [3]; [12]): 60
Barnyardgrass plant response rating (barnyardgrass [3]; 125 g ai/ha, visual rating): 10
Barnyardgrass plant response rating (barnyardgrass [3]; 500 g ai/ha, visual rating): 20
Foxtail, Giant plant response rating (0 to 100 scale) (giant foxtail; [11]): 20
Plant response rating, Foxtail, Giant (giant foxtail; [12]): 70
Foxtail, Giant plant response rating (giant foxtail; 125 g ai/ha, visual rating): 20
Foxtail, Giant plant response rating (giant foxtail; 500 g ai/ha, visual rating): 20
Morningglory plant response rating (0 to 100 scale) (morningglory; [11]): 0
Plant response rating, Morningglory (morningglory; [12]): 10
Morningglory plant response rating (morningglory; 125 g ai/ha, visual rating): 30
Morningglory plant response rating (morningglory; 500 g ai/ha, visual rating): 80
Rice plant response rating (rice [4]; [13]): 0
Rice plant response rating (rice [4]; [14]): 25
Rice plant response rating (rice [4]; [15]): 45
Plant response rating, Rice (rice [4]; [16]): 70
Corn plant response rating (0 to 100 scale) (corn; [11]): 0
Plant response rating, Corn (corn; [12]): 20
Corn plant response rating (corn; 125 g ai/ha, visual rating): 10
Corn plant response rating (corn; 500 g ai/ha, visual rating): 40
Blackgrass plant response rating (blackgrass; 125 g ai/ha): 20
Blackgrass plant response rating (blackgrass; 500 g ai/ha): 20
Crabgrass, Large plant response rating (0 to 100 scale) (large crabgrass; [11]): 20
Plant response rating, Crabgrass, Large (large crabgrass; [12]): 100
Crabgrass, Large plant response rating (large crabgrass; 125 g ai/ha, visual rating): 20
Crabgrass, Large plant response rating (large crabgrass; 500 g ai/ha, visual rating): 20
Wheat plant response rating (wheat; 125 g ai/ha): 20
Wheat plant response rating (wheat; 500 g ai/ha): 30
Sedge, Umbrella plant response rating [5]: 80
Surinam Grass plant response rating (0 to 100 scale) (Surinam grass; [11]): 10
Plant response rating, Surinam Grass (Surinam grass; [12]): 40
Surinam Grass plant response rating (Surinam grass; 125 g ai/ha, visual rating): 10
Surinam Grass plant response rating (Surinam grass; 500 g ai/ha, visual rating): 20
Oat, Wild plant response rating (wild oat; 125 g ai/ha): 30
Oat, Wild plant response rating (wild oat; 500 g ai/ha): 30
Cocklebur plant response rating (0 to 100 scale) (cocklebur; [11]): 0
Plant response rating, Cocklebur (cocklebur; [12]): 0
Cocklebur plant response rating (cocklebur; 125 g ai/ha, visual rating): 10
Cocklebur plant response rating (cocklebur; 500 g ai/ha, visual rating): 20
Ducksalad plant response rating (ducksalad [6]; [13]): 0
Ducksalad plant response rating (ducksalad [6]; [14]): 0
Ducksalad plant response rating (ducksalad [6]; [15]): 40
Plant response rating, Ducksalad (ducksalad [6]; [16]): 65
Barnyardgrass plant response rating (barnyardgrass [7]; [13]): 0
Barnyardgrass plant response rating (barnyardgrass [7]; [14]): 0
Barnyardgrass plant response rating (barnyardgrass [7]; [15]): 50
Plant response rating, Barnyardgrass (barnyardgrass [7]; [16]): 60
Ducksalad plant response rating (ducksalad [8]): 70
Rice plant response rating (0 to 100 scale) (rice [9]; 125 g ai/ha): 20
Plant response rating, Rice (rice [9]; 500 g ai/ha, visual rating): 30
Sedge, Umbrella plant response rating [10, 13]: 10
Sedge, Umbrella plant response rating [10, 14]: 10
Sedge, Umbrella plant response rating [10, 15]: 40
Plant response rating, Sedge, Umbrella [10, 16]: 70
Plant response rating, Lambsquarters (lambsquarters; 500 g ai/ha, 0 = no effect, 100 = complete control, preemergence): 90
Lambsquarters plant response rating (lambsquarters; 125 g ai/ha): 40
Lambsquarters plant response rating (lambsquarters; 500 g ai/ha): 60
Pigweed plant response rating (0 to 100 scale) (pigweed; [11]): 40
Plant response rating, Pigweed (pigweed; [12]): 70
Pigweed plant response rating (pigweed; 125 g ai/ha, visual rating): 30
Pigweed plant response rating (pigweed; 500 g ai/ha, visual rating): 60
